According to US20230357269A1 (LES LABORATOIRES SERVIER, priority 2020, published 2023):

Molecular target: human recombinant LRRK2 protein (Homo sapiens (Human), UniProt Q5S007)
Assay: LRRK2 Kinase Activity Assay (ADP-Glo)
Format: biochemical
Settings: LRRK2 wt; LRRKtide peptide and ATP substrates; 1h-incubation at 37° C.
Description: LRRK2 Kinase reactions were carried out in 384-well white polystyrene plates in a final volume of 6 μl using ADP-Glo™ Kinase Assay kit (Promega Corp.). Compound and substrates (LRRKtide peptide and ATP) in assay buffer were first dispensed in wells. Kinase reaction was then started by the addition of human recombinant LRRK2 protein. After 1h-incubation at 37° C., the enzymatic reaction was stopped by the addition of 6 μl of ADP-Glo Reagent-1 and an additional 40-minutes incubation at 23° C. (residual ATP depletion). A final 30-minutes incubation after 12 μL reagent-2 addition (ADP to ATP conversion and luciferin/luciferase reaction) was performed before luminescent signal acquisition (EnVision™ multimode plate reader-PerkinElmer, Inc.). Data from 10 individual concentrations of tested compounds (N=2) were fitted (XLfit™-ID Business Solutions Ltd) to deliver IC50s (compound concentration leading to 50% inhibition of reference enzymatic activity).
The compounds are dissolved to 5 mM in DMSO. When needed, solutions are sonicated in a bath sonicator.
Table 2 provides the IC50 values of the compounds according to the invention, obtained using the above-mentioned kinase assay. Activities are represented as +++, ++ and +, having the following meanings: • +++ means IC50<10 nM • ++ means 10 nM≤IC50<100 nM • + means 100 nM≤IC50<1 μM.

Sequence of human recombinant LRRK2 protein (Q5S007 whole entry): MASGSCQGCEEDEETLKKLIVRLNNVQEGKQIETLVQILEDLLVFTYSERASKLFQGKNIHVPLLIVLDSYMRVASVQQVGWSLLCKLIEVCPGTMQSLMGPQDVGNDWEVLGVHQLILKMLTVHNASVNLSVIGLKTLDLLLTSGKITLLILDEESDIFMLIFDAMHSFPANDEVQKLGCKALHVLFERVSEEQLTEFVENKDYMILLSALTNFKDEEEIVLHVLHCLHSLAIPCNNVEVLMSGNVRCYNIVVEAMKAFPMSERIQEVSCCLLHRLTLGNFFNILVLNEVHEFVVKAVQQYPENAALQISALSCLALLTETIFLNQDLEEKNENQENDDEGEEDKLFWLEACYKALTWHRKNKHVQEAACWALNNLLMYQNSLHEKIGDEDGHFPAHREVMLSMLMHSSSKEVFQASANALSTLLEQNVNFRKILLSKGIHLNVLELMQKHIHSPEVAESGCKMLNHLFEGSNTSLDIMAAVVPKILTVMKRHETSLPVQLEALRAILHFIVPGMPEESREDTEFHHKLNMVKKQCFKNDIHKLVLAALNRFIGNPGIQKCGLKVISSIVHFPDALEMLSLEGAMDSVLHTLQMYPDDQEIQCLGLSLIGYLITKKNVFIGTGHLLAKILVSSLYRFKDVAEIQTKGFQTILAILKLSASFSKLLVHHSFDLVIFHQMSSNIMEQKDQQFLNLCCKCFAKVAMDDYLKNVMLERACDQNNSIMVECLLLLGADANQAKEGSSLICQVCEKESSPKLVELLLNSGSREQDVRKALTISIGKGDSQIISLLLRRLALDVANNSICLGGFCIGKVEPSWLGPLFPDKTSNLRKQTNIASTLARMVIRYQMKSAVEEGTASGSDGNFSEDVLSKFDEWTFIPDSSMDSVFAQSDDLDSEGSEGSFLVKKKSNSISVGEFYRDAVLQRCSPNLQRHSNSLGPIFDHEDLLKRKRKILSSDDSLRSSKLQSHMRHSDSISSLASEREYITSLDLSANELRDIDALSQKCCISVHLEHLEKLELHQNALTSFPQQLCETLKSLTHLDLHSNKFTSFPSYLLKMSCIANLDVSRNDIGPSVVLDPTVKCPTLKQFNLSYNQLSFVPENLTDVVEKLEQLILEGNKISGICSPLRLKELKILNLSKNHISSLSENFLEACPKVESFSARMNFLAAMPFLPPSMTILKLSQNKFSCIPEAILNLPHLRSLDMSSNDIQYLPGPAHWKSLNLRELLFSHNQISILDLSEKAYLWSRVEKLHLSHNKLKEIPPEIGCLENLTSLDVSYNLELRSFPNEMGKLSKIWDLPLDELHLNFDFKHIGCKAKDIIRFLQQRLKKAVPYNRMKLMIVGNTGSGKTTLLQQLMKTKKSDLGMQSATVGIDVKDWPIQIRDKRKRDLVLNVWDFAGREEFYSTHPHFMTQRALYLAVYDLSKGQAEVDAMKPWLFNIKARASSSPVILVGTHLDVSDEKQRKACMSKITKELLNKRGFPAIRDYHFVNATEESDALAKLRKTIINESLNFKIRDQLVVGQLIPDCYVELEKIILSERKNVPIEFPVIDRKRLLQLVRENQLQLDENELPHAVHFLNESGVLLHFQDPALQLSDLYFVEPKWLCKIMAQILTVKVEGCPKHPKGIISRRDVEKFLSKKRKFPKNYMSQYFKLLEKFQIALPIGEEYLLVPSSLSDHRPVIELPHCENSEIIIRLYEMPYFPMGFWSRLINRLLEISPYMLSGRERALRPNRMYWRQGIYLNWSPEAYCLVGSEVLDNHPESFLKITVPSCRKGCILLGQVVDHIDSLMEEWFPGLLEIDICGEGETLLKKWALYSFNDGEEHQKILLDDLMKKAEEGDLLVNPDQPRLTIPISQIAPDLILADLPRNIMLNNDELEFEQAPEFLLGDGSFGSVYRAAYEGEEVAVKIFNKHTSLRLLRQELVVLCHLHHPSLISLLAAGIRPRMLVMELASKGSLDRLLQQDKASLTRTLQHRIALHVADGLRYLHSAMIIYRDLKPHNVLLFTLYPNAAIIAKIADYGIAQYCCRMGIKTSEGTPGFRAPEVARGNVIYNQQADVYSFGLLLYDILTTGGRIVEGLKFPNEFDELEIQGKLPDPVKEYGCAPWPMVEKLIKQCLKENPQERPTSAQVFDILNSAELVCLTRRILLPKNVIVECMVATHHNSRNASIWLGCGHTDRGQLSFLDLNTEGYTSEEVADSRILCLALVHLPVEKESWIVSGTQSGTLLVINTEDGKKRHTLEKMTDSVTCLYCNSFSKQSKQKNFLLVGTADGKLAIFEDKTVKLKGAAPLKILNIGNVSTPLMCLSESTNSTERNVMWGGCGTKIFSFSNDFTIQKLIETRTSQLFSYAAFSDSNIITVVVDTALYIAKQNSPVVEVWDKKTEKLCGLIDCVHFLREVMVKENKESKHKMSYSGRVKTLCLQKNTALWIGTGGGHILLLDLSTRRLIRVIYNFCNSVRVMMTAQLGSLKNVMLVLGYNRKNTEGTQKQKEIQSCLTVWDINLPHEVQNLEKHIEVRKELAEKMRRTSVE

Row | IC50 | SMILES
1 | < 0.01 µM | C[C@@H]1CCNC(=O)OCCn2cc(cn2)-c2n[nH]c3ccc(cc23)O1 [Example 97, (13R)-13-methyl-8,14-dioxa-4,5,10,19,20-pentaazatetracyclo[13.5.2.1^2,5.0^18,21]tricosa-1(20),2(23),3,15,17,21-hexaen-9-one]
2 | < 0.01 µM | CC1COC(=O)NCCCOc2ccc3[nH]nc(c3c2)-c2cnn1c2 (centres unmarked) [Example 110, 6-methyl-8,14-dioxa-4,5,10,19,20-pentaazatetracyclo[13.5.2.1^2,5.0^18,21]tricosa-1(20),2(23),3,15,17,21-hexaen-9-one]
3 | < 0.01 µM | O=C1NCCCOc2ccc3[nH]nc(c3c2)-c2cc(cc(N3CCCC3)c2)CO1 [Example 12, 4-(pyrrolidin-1-yl)-8,14-dioxa-10,19,20-triazatetracyclo[13.5.2.1^2,6.0^18,21]tricosa-1(20),2,4,6(23),15,17,21-heptaen-9-one]
4 | 0.01 to 0.1 µM | CC1CCOc2ccc3[nH]nc(c3c2)-c2cnn(c2)CCOC(=O)N1 (centres unmarked) [Example 85, 11-methyl-8,14-dioxa-4,5,10,19,20-pentaazatetracyclo[13.5.2.1^2,5.0^18,21]tricosa-1(20),2(23),3,15(22),16,18(21)-hexaen-9-one]
5 | < 0.01 µM | CC(C)Oc1cc2cc(c1)-c1n[nH]c3ccc(cc13)OCCCNC(=O)OC2 [Example 55, 4-(propan-2-yloxy)-8,14-dioxa-10,19,20-triazatetracyclo[13.5.2.1^2,6.0^18,21]tricosa-1(20),2,4,6(23),15,17,21-heptaen-9-one]
6 | < 0.01 µM | O=C1NCCCOc2ccc3[nH]nc(c3c2)-c2cc(cc(N3CC[C@@H](O)C3)c2)CO1 [Example 25, 4-[(3R)-3-hydroxypyrrolidin-1-yl]-8,14-dioxa-10,19,20-triazatetracyclo[13.5.2.1^2,6.0^18,21]tricosa-1(20),2,4,6(23),15,17,21-heptaen-9-one]
7 | 0.01 to 0.1 µM | CCC1CC2=NN1CCOC(=O)NCCCOc1ccc3[nH]nc2c3c1 (centres unmarked) [Example 119, 4-ethyl-8,14-dioxa-5,10,19,20,23-pentaazatetracyclo[13.5.2.1^2,5.0^18,21]tricosa-1(20),2(23),15,17,21-pentaen-9-one]
8 | < 0.01 µM | O=C1NCCCOc2ccc3[nH]nc(c3c2)-c2cc(F)cc(c2)CO1 [Example 3, 4-fluoro-8,14-dioxa-10,19,20-triazatetracyclo[13.5.2.1^2,6.0^18,21]tricosa-1(20), 2,4,6(23),15,17,21-heptaen-9-one]
9 | < 0.01 µM | O=C1NCCCOc2ccc3[nH]nc(c3c2)-c2cc(cc(N3CC[C@H](O)C3)c2)CO1 [Example 59, 4-[(3S)-3-hydroxypyrrolidin-1-yl]-8,14-dioxa-10,19,20-triazatetracyclo[13.5.2.1^2,6.0^18,21]tricosa-1(20),2,4,6(23),15,17,21-heptaen-9-one]
10 | < 0.01 µM | O=C1NCCCOc2ccc3[nH]nc(c3c2)-c2ccc(C3CC3)c(c2)CO1 [Example 69, 5-cyclopropyl-8,14-dioxa-10,19,20-triazatetracyclo[13.5.2.1^2,6.0^18,21]tricosa-1(20),2,4,6(23),15,17,21-heptaen-9-one]
11 | < 0.01 µM | O=C1NCCCOc2ccc3[nH]nc(c3c2)-c2cc(cc(N3CCOCC3)c2)CO1 [Example 16, 4-(morpholin-4-yl)-8,14-dioxa-10,19,20-triazatetracyclo[13.5.2.1^2,6.0^18,21]tricosa-1(20),2,4,6(23),15,17,21-heptaen-9-one]
12 | < 0.01 µM | COCCc1cc2cc(c1)-c1n[nH]c3ccc(cc13)OCCCNC(=O)OC2 [Example 67, 4-(2-methoxyethyl)-8,14-dioxa-10,19,20-triazatetracyclo[13.5.2.1^2,6.0^18,21]tricosa-1(20),2(23),3,5,15(22),16,18(21)-heptaen-9-one]

The next lines start with the molecule.

Row | SMILES | IC50
13 | C[C@@H]1OC(=O)NCCCOc2ccc3[nH]nc(c3c2)-c2cccc1c2 [Example 65, (7S)-7-methyl-8,14-dioxa-10,19,20-triazatetracyclo[13.5.2.1^2,6.0^18,21]tricosa-1(20),2(23),3,5,15(22),16,18(21)-heptaen-9-one] | 0.01 to 0.1 µM
14 | CC1OC(=O)NCCCOc2ccc3[nH]nc(c3c2)-c2cccc1c2 (centres unmarked) [Example 22, 7-methyl-8,14-dioxa-10,19,20-triazatetracyclo[13.5.2.1^2,6.0^18,21]tricosa-1(20), 2,4,6(23),15,17,21-heptaen-9-one] | < 0.01 µM
15 | C[C@@H]1CCNC(=O)OCc2cccc(c2)-c2n[nH]c3ccc(cc23)O1 [Example 63, (13R)-13-methyl-8,14-dioxa-10,19,20-triazatetracyclo[13.5.2.1^2,6.0^18,21]tricosa-1(20),2(23),3,5,15(22),16,18(21)-heptaen-9-one] | < 0.01 µM
16 | O=C1NCC(F)(F)COc2ccc3[nH]nc(c3c2)-c2cnn(n2)CCO1 [Example 167, 12,12-difluoro-8,14-dioxa-4,5,10,19,20,23-hexaazatetracyclo[13.5.2.1^2,5.0^18,21]tricosa-1(20),2(23),3,15(22),16,18(21)-hexaen-9-one] | < 0.01 µM
17 | C[C@@H]1CCNC(=O)O[C@H](C)c2cncc(n2)-c2n[nH]c3ccc(cc23)O1 [Example 155, (7R,13R)-7,13-dimethyl-8,14-dioxa-4,10,19,20,23-pentaazatetracyclo[13.5. 2.1^2,6.0^18,21]tricosa-1(20),2(23),3,5,15(22),16,18(21)-heptaen-9-one] | < 0.01 µM
18 | CN(C)Cc1cc2cc(c1)-c1n[nH]c3ccc(cc13)OCCCNC(=O)OC2 [Example 53, 4-[(dimethylamino)methyl]-8,14-dioxa-10,19,20-triazatetracyclo[13.5.2.1^2,6.0^18,21]tricosa-1(20),2,4,6(23),15,17,21-heptaen-9-one] | 0.01 to 0.1 µM
19 | O=C1NC[C@H](F)COc2ccc3[nH]nc(c3c2)-c2cccc(c2)CO1 [Example 169, (12S)-12-fluoro-8,14-dioxa-10,19,20-triazatetracyclo[13.5.2.1^2,6.0^18,21]tricosa-1(20),2(23),3,5,15(22),16,18(21)-heptaen-9-one] | < 0.01 µM
20 | CC1CCNC(=O)OCc2cccc(n2)-c2n[nH]c3ccc(cc23)O1 (centres unmarked) [Example 92, 13-methyl-8,14-dioxa-10,19,20,23-tetraazatetracyclo[13.5.2.1^2,6.0^18,21]tricosa-1(20),2(23),3,5,15(22),16,18(21)-heptaen-9-one] | < 0.01 µM
21 | O=C1NCCCOc2ccc3[nH]nc(c3c2)-c2cc(cc(N3CCCC3=O)c2)CO1 [Example 74, 4-(2-oxopyrrolidin-1-yl)-8,14-dioxa-10,19,20-triazatetracyclo[13.5.2. 1^2,6.0^18,21]tricosa-1(20),2(23),3,5,15(22),16,18(21)-heptaen-9-one] | < 0.01 µM
22 | O=C1NCCCOc2ccc3[nH]nc(c3c2)-c2cc(cc(N3CCOCC3=O)c2)CO1 [Example 73, 4-(3-oxomorpholin-4-yl)-8,14-dioxa-10,19,20-triazatetracyclo[13.5.2. 1^2,6.0^18,21]tricosa-1(20),2(23),3,5,15(22),16,18(21)-heptaen-9-one] | < 0.01 µM
23 | COCCN(C)c1cc2cc(c1)-c1n[nH]c3ccc(cc13)OCCCNC(=O)OC2 [Example 26, 4-[(2-methoxyethyl)(methyl)amino]-8,14-dioxa-10,19,20-triazatetracyclo[13.5.2.1^2,6.0^18,21]tricosa-1(20),2,4,6(23),15,17,21-heptaen-9-one] | < 0.01 µM
24 | C[C@@H]1CCNC(=O)OCc2cncc(c2)-c2n[nH]c3ccc(cc23)O1 [Example 102, (13R)-13-methyl-8,14-dioxa-4,10,19,20-tetraazatetracyclo[13.5.2.1^2,6.0^18,21]tricosa-1(20),2(23),3,5,15(22),16,18(21)-heptaen-9-one] | < 0.01 µM
25 | C[C@@H]1CCNC(=O)OCc2cccc(c2F)-c2n[nH]c3ccc(cc23)O1 [Example 120, (13R)-23-fluoro-13-methyl-8,14-dioxa-10,19,20-triazatetracyclo[13.5.2.1^2,6.0^18,21]tricosa-1(20),2,4,6(23),15,17,21-heptaen-9-one] | 0.1 to 1 µM
26 | C[C@@H]1CCNC(=O)OCc2nccc(n2)-c2n[nH]c3ccc(cc23)O1 [Example 105, (13R)-13-methyl-8,14-dioxa-5,10,19,20,23-pentaazatetracyclo[13.5.2.1^2,6.0^18,21]tricosa-1(20),2,4,6(23),15,17,21-heptaen-9-one] | < 0.01 µM
27 | CC1Cn2cc(cn2)-c2n[nH]c3ccc(cc23)O[C@H](C)CCNC(=O)O1 (stereo partly drawn) [Example 113, (13R)-7,13-dimethyl-8,14-dioxa-4,5,10,19,20-pentaazatetracyclo[13.5.2.1^2,5.0^18,21]tricosa-1(20),2(23),3,15(22),16,18(21)-hexaen-9-one] | < 0.01 µM
28 | C[C@@H]1CCNC(=O)OCc2cc(ccc2C#N)-c2n[nH]c3ccc(cc23)O1 [Example 128, (13R)-13-methyl-9-oxo-8,14-dioxa-10,19,20-triazatetracyclo[13.5.2.1^2,6. 0^18,21]tricosa-1(20),2,4,6(23),15,17,21-heptaene-5-carbonitrile] | < 0.01 µM
29 | C[C@@H]1CCNC(=O)O[C@@H](C)c2cncc(n2)-c2n[nH]c3ccc(cc23)O1 [Example 154, (7S,13R)-7,13-dimethyl-8,14-dioxa-4,10,19,20,23-pentaazatetracyclo[13.5.2.1^2,6.0^18,21]tricosa-1(20),2(23),3,5,15(22),16,18(21)-heptaen-9-one] | 0.01 to 0.1 µM
